US12103915B2, “TEAD inhibitors and methods of uses thereof” (Insilico Medicine IP Limited, priority 2022, dated 2024)
pIC50: −log10 of the molar value.

Experiments:
TEAD4 = TEAD4 (Homo sapiens, UniProt Q15561); assay: Thermal shift assay TEAD4; type: binding
Method in brief: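 Compounds tested at 1 and 10 μM (0.1% DMSO, PBS) against TEAD4 protein at 0.1 mg/ml final. Melting followed by thermal shift dye fluorescence during a qPCR instrument ramp.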

TEAD1 = TEAD1 (Homo sapiens, UniProt P28347); assay: Thermal shift assay TEAD1; type: binding
TEAD1, sequence (P28347 whole entry, species assumed): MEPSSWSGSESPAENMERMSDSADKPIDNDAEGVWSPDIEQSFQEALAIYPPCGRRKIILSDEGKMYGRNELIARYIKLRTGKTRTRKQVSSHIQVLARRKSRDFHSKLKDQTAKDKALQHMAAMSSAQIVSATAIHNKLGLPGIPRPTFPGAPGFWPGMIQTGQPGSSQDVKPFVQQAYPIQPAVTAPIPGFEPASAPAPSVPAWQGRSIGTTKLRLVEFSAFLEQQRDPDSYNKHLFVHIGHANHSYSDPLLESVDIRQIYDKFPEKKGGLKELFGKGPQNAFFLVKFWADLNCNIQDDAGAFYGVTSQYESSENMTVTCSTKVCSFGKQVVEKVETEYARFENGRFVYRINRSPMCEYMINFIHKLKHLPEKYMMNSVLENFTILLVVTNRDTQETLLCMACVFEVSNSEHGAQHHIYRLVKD
Method in brief: (§1)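 Protein melt reactions contained TEAD1 (0.2 mg/ml final) or TEAD2 (0.08 mg/ml final) plus compound at 1 or 10 μM in 0.1% DMSO. Thermal unfolding was followed by dye fluorescence on a qPCR instrument.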

TEAD3 = TEAD3 (Homo sapiens, UniProt Q99594); assay: Thermal shift assay TEAD3; type: binding
TEAD3, sequence (Q99594 whole entry, species assumed): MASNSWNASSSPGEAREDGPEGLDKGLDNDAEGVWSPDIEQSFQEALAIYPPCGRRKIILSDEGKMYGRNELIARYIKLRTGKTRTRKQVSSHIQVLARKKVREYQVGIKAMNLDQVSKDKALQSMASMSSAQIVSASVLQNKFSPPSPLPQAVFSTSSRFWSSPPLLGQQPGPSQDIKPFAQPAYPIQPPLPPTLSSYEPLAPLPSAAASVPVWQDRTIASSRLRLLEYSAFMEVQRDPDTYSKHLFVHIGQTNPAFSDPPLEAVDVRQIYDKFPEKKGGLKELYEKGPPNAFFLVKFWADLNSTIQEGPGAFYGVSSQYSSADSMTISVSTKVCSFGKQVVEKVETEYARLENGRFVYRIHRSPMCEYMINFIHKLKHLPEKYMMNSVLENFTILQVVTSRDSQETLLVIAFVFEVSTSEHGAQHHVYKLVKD
Method in brief: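 Compounds at 1 or 10 μM (0.1% DMSO, PBS dilution) mixed with 0.1 mg/ml final TEAD3 and thermal shift dye, then run through a qPCR melt to follow protein unfolding.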

NCI-H226 cells = assay: Cell growth assay (CellTiter-Glo); type: cell-based, human; details: Homo sapiens, NCI-H226, 168 h, 7 days treatment, CellTiter-Glo luminescence, read-out: H226 CTG IC50
TEAD2 = TEAD2 (Homo sapiens, UniProt Q15562); assay: Thermal shift assay TEAD2; type: binding
TEAD2, sequence (Q15562 whole entry, species assumed): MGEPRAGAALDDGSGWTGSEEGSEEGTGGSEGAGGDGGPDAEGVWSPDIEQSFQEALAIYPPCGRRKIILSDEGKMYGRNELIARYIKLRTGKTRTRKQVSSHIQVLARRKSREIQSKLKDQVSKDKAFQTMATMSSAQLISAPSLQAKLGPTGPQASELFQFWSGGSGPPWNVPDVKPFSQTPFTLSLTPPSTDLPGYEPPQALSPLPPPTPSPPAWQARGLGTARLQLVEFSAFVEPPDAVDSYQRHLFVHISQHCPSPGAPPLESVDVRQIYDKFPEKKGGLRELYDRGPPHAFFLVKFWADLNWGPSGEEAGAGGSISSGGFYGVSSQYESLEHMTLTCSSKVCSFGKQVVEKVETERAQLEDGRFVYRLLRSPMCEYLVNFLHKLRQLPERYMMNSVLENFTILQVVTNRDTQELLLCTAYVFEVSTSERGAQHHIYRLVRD
Method in brief: as §1

TEAD4, sequence (Q15561 whole entry, species assumed): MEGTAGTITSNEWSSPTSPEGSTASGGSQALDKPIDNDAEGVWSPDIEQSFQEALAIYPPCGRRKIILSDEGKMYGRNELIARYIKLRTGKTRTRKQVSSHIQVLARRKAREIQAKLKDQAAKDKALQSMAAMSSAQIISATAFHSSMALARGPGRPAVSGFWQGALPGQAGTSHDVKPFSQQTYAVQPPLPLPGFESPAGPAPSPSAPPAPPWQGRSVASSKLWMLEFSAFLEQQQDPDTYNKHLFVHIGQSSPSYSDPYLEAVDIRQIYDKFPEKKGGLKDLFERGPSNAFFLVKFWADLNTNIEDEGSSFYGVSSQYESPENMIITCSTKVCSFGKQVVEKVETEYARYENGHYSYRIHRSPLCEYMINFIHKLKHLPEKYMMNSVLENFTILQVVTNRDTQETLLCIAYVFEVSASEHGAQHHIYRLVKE

## C[C@H](CO)NC(=O)[C@@H]1CC1c1cc(Oc2ccc(C(F)(F)F)cc2)cc2cn(C)nc12 (single isomer, unassigned) [Example 55]
TEAD4
  TEAD4 ΔTm: 11.5 °C
TEAD1
  TEAD1 ΔTm: 11.3 °C
TEAD3
  TEAD3 ΔTm: 10.2 °C
NCI-H226 cells
  pIC50: > 7.00
TEAD2
  TEAD2 ΔTm: 11.1 °C

## Cn1cc2cc(Oc3ccc(C(F)(F)F)cc3)cc([C@@H]3C[C@H]3C(=O)N3CCC34CC(=O)C4)c2n1 (single isomer, unassigned) [Example 135]
TEAD4
  TEAD4 ΔTm: 6.9 °C
TEAD1
  TEAD1 ΔTm: 25.0 °C
TEAD3
  TEAD3 ΔTm: 18.0 °C
NCI-H226 cells
  pIC50: 6.30 to 7.00
TEAD2
  TEAD2 ΔTm: 25.0 °C

## Cn1cc2cc(Oc3ccc(C(F)(F)F)cc3)cc([C@@H]3C[C@H]3C(=O)NC#N)c2n1 (single isomer, unassigned) [Example 71]
TEAD4
  TEAD4 ΔTm: 12.2 °C
TEAD1
  TEAD1 ΔTm: 11.2 °C
TEAD3
  TEAD3 ΔTm: 12.2 °C
NCI-H226 cells
  pIC50: 4.52 to 6.00
TEAD2
  TEAD2 ΔTm: 13.4 °C

## CNS(=O)(=O)CCc1cc(-c2ccc(C(F)(F)F)cc2)cc2c1cnn2C [Example 42]
TEAD4
  TEAD4 ΔTm: 3.8 °C
TEAD1
  TEAD1 ΔTm: 7.3 °C
TEAD3
  TEAD3 ΔTm: 3.5 °C
NCI-H226 cells
  pIC50: > 7.00
TEAD2
  TEAD2 ΔTm: 4.1 °C

## CC(C)NC(=O)[C@@H]1C[C@H]1c1cc(-c2ccc(C(F)(F)F)cc2)cc2c1cnn2C (racemic) [Example 27]
TEAD4
  TEAD4 ΔTm: 0.6 °C
TEAD1
  TEAD1 ΔTm: 0.6 °C
TEAD3
  TEAD3 ΔTm: 0.3 °C
NCI-H226 cells
  pIC50: 6.30 to 7.00
TEAD2
  TEAD2 ΔTm: 0.5 °C

## Cn1cc2cc(Oc3ccc(F)c(F)c3)cc([C@H]3C[C@@H]3C(=O)N3CC(O)C3)c2n1 (single isomer, unassigned) [Example 90b]
TEAD4
  TEAD4 ΔTm: 10.3 °C
TEAD1
  TEAD1 ΔTm: 7.7 °C
TEAD3
  TEAD3 ΔTm: 2.9 °C
NCI-H226 cells
  pIC50: > 7.00
TEAD2
  TEAD2 ΔTm: 10.5 °C

## Cn1cc2cc(Oc3ccc(C(F)(F)F)cc3)cc(C3C[C@H]3C(=O)N3CCC4(COC4)C3)c2n1 (single isomer, unassigned) [Example 98]
TEAD4
  TEAD4 ΔTm: 8.4 °C
TEAD1
  TEAD1 ΔTm: 7.3 °C
TEAD3
  TEAD3 ΔTm: 0 °C
NCI-H226 cells
  pIC50: 6.30 to 7.00
TEAD2
  TEAD2 ΔTm: 9.2 °C

## Cn1cc2cc(Oc3ccc(C(F)(F)F)cc3)cc([C@@H]3C[C@H]3C(=O)N[C@@H](CO)c3ccccn3)c2n1 (single isomer, unassigned) [Example 59b]
TEAD4
  TEAD4 ΔTm: 15.6 °C
TEAD1
  TEAD1 ΔTm: 9.4 °C
TEAD3
  TEAD3 ΔTm: 13.1 °C
NCI-H226 cells
  pIC50: 6.30 to 7.00
TEAD2
  TEAD2 ΔTm: 11.3 °C

## Cn1cc2cc(Oc3ccc(C(F)(F)F)c(F)c3)cc([C@@H]3C[C@H]3C(=O)N3C[C@@H]4C[C@H]3C[C@@H]4O)c2n1 (single isomer, unassigned) [Example 140]
TEAD4
  TEAD4 ΔTm: 10.6 °C
TEAD1
  TEAD1 ΔTm: 7.6 °C
TEAD3
  TEAD3 ΔTm: 8.9 °C
NCI-H226 cells
  pIC50: > 7.00
TEAD2
  TEAD2 ΔTm: 11.1 °C

## Cn1cc2cc(Oc3ccc(C(F)(F)F)cc3)cc([C@@H]3C[C@H]3C(=O)N3CC4CC3C(=O)N4)c2n1 (single isomer, unassigned) [Example 121]
TEAD4
  TEAD4 ΔTm: 8.9 °C
TEAD1
  TEAD1 ΔTm: 7.9 °C
TEAD3
  TEAD3 ΔTm: 2.0 °C
NCI-H226 cells
  pIC50: > 7.00
TEAD2
  TEAD2 ΔTm: 10.6 °C

## CNS(=O)(=O)CCc1cc(N2CCC3(CCCC3)CC2)cc2cn(C)nc12 [Example 48]
TEAD4
  TEAD4 ΔTm: 8.4 °C
TEAD1
  TEAD1 ΔTm: 6.3 °C
TEAD3
  TEAD3 ΔTm: 1.9 °C
NCI-H226 cells
  pIC50: 4.52 to 6.00
TEAD2
  TEAD2 ΔTm: 9.4 °C

## CNS(=O)(=O)/C=C/c1cc(-c2ccc(C(F)(F)F)cc2)cc2c1cnn2C [Example 41]
TEAD4
  TEAD4 ΔTm: 1.4 °C
TEAD1
  TEAD1 ΔTm: 2.1 °C
TEAD3
  TEAD3 ΔTm: 0.7 °C
NCI-H226 cells
  pIC50: > 7.00
TEAD2
  TEAD2 ΔTm: 1.2 °C

## O=C(O)[C@@H]1CC1c1cc(-c2ccc(C(F)(F)F)cc2)cc2scnc12 (mixture of isomers) [Example 14]
TEAD4
  TEAD4 ΔTm: 0.2 °C
TEAD1
  TEAD1 ΔTm: 0.4 °C
TEAD3
  TEAD3 ΔTm: 0 °C
NCI-H226 cells
  pIC50: 4.52 to 6.00
TEAD2
  TEAD2 ΔTm: 0.3 °C

## Cn1cc2cc(Oc3ccc(C(F)(F)F)cc3)cc([C@@H]3C[C@H]3C(=O)N3CC4CC3CC4O)c2n1 (single isomer, unassigned) [Example 103a]
TEAD4
  TEAD4 ΔTm: 9.0 °C
TEAD1
  TEAD1 ΔTm: 6.4 °C
TEAD3
  TEAD3 ΔTm: 3.0 °C
NCI-H226 cells
  pIC50: > 7.00
TEAD2
  TEAD2 ΔTm: 9.9 °C

## Cn1cc2cc(Oc3ccc(C(F)(F)F)cc3)cc(C3C[C@H]3C(=O)NC3CC4(CC(O)C4)C3)c2n1 (single isomer, unassigned) [Example 95]
TEAD4
  TEAD4 ΔTm: 9.4 °C
TEAD1
  TEAD1 ΔTm: 9.4 °C
TEAD3
  TEAD3 ΔTm: 6.4 °C
NCI-H226 cells
  pIC50: > 7.00
TEAD2
  TEAD2 ΔTm: 10.6 °C

## Cc1ccc2c(c1)c(C1C[C@H]1C(=O)O)cn2-c1ccc(C(F)(F)F)cc1 (mixture of isomers) [Example 21]
TEAD4
  TEAD4 ΔTm: 9.3 °C
TEAD1
  TEAD1 ΔTm: 11 °C
TEAD3
  TEAD3 ΔTm: 5.2 °C
NCI-H226 cells
  pIC50: > 7.00
TEAD2
  TEAD2 ΔTm: 6.7 °C

## Cc1cn2cc(Oc3ccc(C(F)(F)F)cc3)cc([C@H]3C[C@@H]3C(=O)N3CC(O)C3)c2n1 (single isomer, unassigned) [Example 85b]
TEAD4
  TEAD4 ΔTm: 4.4 °C
TEAD1
  TEAD1 ΔTm: 7.4 °C
TEAD3
  TEAD3 ΔTm: 1.8 °C
NCI-H226 cells
  pIC50: > 7.00
TEAD2
  TEAD2 ΔTm: 7.1 °C

## CO[C@@H]1CN(C(=O)[C@@H]2C[C@H]2c2cc(Oc3ccc(C(F)(F)F)cc3)cc3cn(C)nc23)C[C@H]1O (single isomer, unassigned) [Example 112b]
TEAD4
  TEAD4 ΔTm: 10.1 °C
TEAD1
  TEAD1 ΔTm: 8.4 °C
TEAD3
  TEAD3 ΔTm: 1.9 °C
NCI-H226 cells
  pIC50: > 7.00
TEAD2
  TEAD2 ΔTm: 10.2 °C

## CC(=O)NS(=O)(=O)CCc1cc(-c2ccc(C(F)(F)F)cc2)cc2cn(C)nc12 [Example 46]
TEAD4
  TEAD4 ΔTm: 11.2 °C
TEAD1
  TEAD1 ΔTm: 10.4 °C
TEAD3
  TEAD3 ΔTm: 7.2 °C
NCI-H226 cells
  pIC50: 4.52 to 6.00
TEAD2
  TEAD2 ΔTm: 10.9 °C

## CN(C)C(=O)[C@@H]1C[C@H]1c1cc(Oc2ccc(C(F)(F)F)c(F)c2)cc2cn(C)nc12 (single isomer, unassigned) [Example 141]
TEAD4
  TEAD4 ΔTm: 12.0 °C
TEAD1
  TEAD1 ΔTm: 9.3 °C
TEAD3
  TEAD3 ΔTm: 11.4 °C
NCI-H226 cells
  pIC50: > 7.00
TEAD2
  TEAD2 ΔTm: 16.2 °C

## Cn1cc2cc(Oc3ccc(Cl)cc3)cc([C@@H]3C[C@H]3C(=O)N3C[C@@H]4C[C@H]3C[C@@H]4O)c2n1 (single isomer, unassigned) [Example 139]
TEAD4
  TEAD4 ΔTm: 7.6 °C
TEAD1
  TEAD1 ΔTm: 5.5 °C
TEAD3
  TEAD3 ΔTm: 2.8 °C
NCI-H226 cells
  pIC50: > 7.00
TEAD2
  TEAD2 ΔTm: 9.2 °C

## Cn1cc2cc(Oc3ccc(C(F)(F)F)cc3)cc([C@@H]3C[C@H]3C(=O)N3CC(C#N)C3)c2n1 (single isomer, unassigned) [Example 70]
TEAD4
  TEAD4 ΔTm: 8.6 °C
TEAD1
  TEAD1 ΔTm: 8.4 °C
TEAD3
  TEAD3 ΔTm: 7.0 °C
NCI-H226 cells
  pIC50: > 7.00
TEAD2
  TEAD2 ΔTm: 11.7 °C

## CNC(=O)[C@@H]1CC1c1cc(Oc2ccc(C(F)(F)F)cc2)cc2cn(C)nc12 (mixture of isomers) [Example 34]
TEAD4
  TEAD4 ΔTm: 10.3 °C
TEAD1
  TEAD1 ΔTm: 8.5 °C
TEAD3
  TEAD3 ΔTm: 6.6 °C
NCI-H226 cells
  pIC50: > 7.00
TEAD2
  TEAD2 ΔTm: 12.7 °C

## CCNC(=O)[C@@H]1CC1c1cc(-c2ccc(C(F)(F)F)cc2)cc2c1=NC(C)N=2 (mixture of isomers) [Example 23]
TEAD4
  TEAD4 ΔTm: 6.5 °C
TEAD1
  TEAD1 ΔTm: 4.7 °C
TEAD3
  TEAD3 ΔTm: 0.7 °C
NCI-H226 cells
  pIC50: 6.30 to 7.00
TEAD2
  TEAD2 ΔTm: 3.5 °C

## O=C(O)[C@@H]1CC1c1cn(-c2ccc(C(F)(F)F)cc2)c2cccnc12 (mixture of isomers) [Example 20]
TEAD4
  TEAD4 ΔTm: 5.9 °C
TEAD1
  TEAD1 ΔTm: 3.8 °C
TEAD3
  TEAD3 ΔTm: 3.2 °C
NCI-H226 cells
  pIC50: 6.30 to 7.00
TEAD2
  TEAD2 ΔTm: 6.8 °C

## O=C(O)[C@@H]1CC1c1cc(-c2ccc(C(F)(F)F)cc2)cc2cn(-c3cccnc3)nc12 (mixture of isomers) [Example 4]
TEAD4
  TEAD4 ΔTm: 4.2 °C
TEAD1
  TEAD1 ΔTm: 5 °C
TEAD3
  TEAD3 ΔTm: 1.1 °C
NCI-H226 cells
  pIC50: 4.52 to 6.00
TEAD2
  TEAD2 ΔTm: 1.6 °C
